# Experimental data published in PMC5598064 (Cardiovascular Diabetology, 2017).
# Like-named read-outs stand apart in the source and are kept apart here.
# Columns and labels:
# [1] = healthy individuals, saxagliptin 5 mg, highest recommended therapeutic dose; cited from earlier work
# [2] = test system: healthy individuals; conditions: in vivo, po
# Procedure: (§1) Participants who were randomized to 75 or 100 mg received their second dose 30 min before consuming the high fat breakfast. Vital sign and 12-lead electrocardiogram (ECG) measurements were collected at screening, at various times throughout the study, and at discharge.
# [3] = test system: healthy individuals; conditions: in vivo
# Procedure: (§2) All doses were administered 1 h before consumption of a standard American Heart Association Step 1 diet (≤30% of calories from fats) or a standard liquid meal on days 8 and 13 (BoostPlus®; Nestlé). […] Vital sign and 12-lead ECG measurements were collected at screening, at various times throughout the study, and at discharge. Multiple blood samples for pharmacokinetic analysis were collected on days 1–2 and 14–15.
# [4] = test system: healthy individuals; conditions: for concentration-dependent effect on QTcP: in vivo
# Description: (§3) In a randomized, double-blind, 4-period, 4-treatment, cross-over tQTc study, healthy individuals were randomized to one of four treatment sequence groups. […] Serial blood samples for pharmacokinetic analysis were collected on day 4 of each period.
# To account for the high degree of correlation between heart rate and QT interval, various correction formulae, including Bazett’s formula (QTcB), Fridericia’s formula (QTcF), QT interval corrected for heart rate (QTc) based on linear population-based analysis (QTcP), and QT interval corrected for heart rate based on log-linear population-based analysis (QTcLogP) were applied to obtain a QT interval independent of heart rate.
# [5] = test system: rabbit Purkinje fibers; conditions: mean (SEM)
# [6] = target: L type Ca^2+; experiment: Radioligand binding, cardiovascular-related targets; conditions: antagonism of radioligand binding; read-out: IC50 or EC50
# [7] = test system: dog; conditions: in vivo, iv, 5.9 mg/kg
# [8] = target: T1, Muscarinic M2 (Homo sapiens, UniProt P08172); experiment: Radioligand binding, cardiovascular-related targets
# T1 sequence (P08172 1-466): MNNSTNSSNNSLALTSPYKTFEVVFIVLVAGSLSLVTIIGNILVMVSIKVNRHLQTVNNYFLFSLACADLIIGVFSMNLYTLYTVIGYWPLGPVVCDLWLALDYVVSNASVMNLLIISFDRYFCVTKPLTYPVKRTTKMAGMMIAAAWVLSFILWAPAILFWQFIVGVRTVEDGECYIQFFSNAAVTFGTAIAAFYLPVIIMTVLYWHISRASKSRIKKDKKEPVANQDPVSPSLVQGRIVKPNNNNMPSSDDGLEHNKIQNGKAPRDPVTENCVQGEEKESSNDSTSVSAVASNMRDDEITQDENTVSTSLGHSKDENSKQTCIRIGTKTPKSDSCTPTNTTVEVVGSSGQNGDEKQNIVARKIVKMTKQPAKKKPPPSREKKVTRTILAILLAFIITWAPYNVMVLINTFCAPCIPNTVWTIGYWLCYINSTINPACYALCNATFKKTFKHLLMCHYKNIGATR
# [9] = test system: rat; conditions: in vivo, iv, 5.9 mg/kg
# [10] = test system: healthy participants and patients with T2D; conditions: human, in vivo
# Procedure: as §1, §2, §3
# In a randomized, placebo-controlled, sequential MAD study, 40 patients with T2D were randomized to receive 2.5, 5, 15, 30, or 50 mg/day or matching placebo for 14 days. All doses were administered after consumption of a standard breakfast. […] Vital sign measurements and 12-lead ECG measurements were collected at screening, at various times throughout the study, and at discharge. Serial blood samples for pharmacokinetic analysis were collected on days 1, 7, and 14.
# [11] = test system: receptors, ion channels, and enzymes; experiment: Radioligand binding panel, all targets assessed; conditions: 10 μM
# [12] = target: ACE; experiment: Radioligand binding, cardiovascular-related targets
# [13] = target: GABA-A α1B2γ2 (Homo sapiens, UniProt P14867+P18507+P47870); experiment: as above
# [14] = target: PDE (phosphodiesterase-3); experiment: as above; conditions: antagonism of radioligand binding; read-out: IC50 or EC50
# [15] = target: T2, Adrenergic α1β (Homo sapiens, UniProt P35368); experiment: as above
# T2 sequence (P35368 1-520): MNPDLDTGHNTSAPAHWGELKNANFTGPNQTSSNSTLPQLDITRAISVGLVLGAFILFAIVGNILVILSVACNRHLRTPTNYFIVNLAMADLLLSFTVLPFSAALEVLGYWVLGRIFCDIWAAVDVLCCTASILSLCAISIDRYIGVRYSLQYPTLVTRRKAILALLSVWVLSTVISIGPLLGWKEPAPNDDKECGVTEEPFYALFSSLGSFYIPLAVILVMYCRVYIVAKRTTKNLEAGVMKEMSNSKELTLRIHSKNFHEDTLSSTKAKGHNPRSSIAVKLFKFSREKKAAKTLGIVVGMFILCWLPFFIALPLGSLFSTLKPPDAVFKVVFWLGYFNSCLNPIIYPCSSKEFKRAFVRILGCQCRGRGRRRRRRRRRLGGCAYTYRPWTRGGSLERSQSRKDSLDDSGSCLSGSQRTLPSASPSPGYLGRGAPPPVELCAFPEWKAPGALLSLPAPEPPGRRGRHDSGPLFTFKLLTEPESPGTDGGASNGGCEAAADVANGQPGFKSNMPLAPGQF
# [16] = test system: dogs; conditions: dog, in vivo
# [17] = test system: rodents and non-rodents; conditions: in vivo, po
# [18] = test system: monkeys; conditions: monkey, in vivo
# [19] = target: Cardiac hNAV1.5 (Homo sapiens, UniProt Q14524); experiment: Radioligand binding, cardiovascular-related targets
# Chain of Cardiac hNAV1.5 (Q14524 whole entry): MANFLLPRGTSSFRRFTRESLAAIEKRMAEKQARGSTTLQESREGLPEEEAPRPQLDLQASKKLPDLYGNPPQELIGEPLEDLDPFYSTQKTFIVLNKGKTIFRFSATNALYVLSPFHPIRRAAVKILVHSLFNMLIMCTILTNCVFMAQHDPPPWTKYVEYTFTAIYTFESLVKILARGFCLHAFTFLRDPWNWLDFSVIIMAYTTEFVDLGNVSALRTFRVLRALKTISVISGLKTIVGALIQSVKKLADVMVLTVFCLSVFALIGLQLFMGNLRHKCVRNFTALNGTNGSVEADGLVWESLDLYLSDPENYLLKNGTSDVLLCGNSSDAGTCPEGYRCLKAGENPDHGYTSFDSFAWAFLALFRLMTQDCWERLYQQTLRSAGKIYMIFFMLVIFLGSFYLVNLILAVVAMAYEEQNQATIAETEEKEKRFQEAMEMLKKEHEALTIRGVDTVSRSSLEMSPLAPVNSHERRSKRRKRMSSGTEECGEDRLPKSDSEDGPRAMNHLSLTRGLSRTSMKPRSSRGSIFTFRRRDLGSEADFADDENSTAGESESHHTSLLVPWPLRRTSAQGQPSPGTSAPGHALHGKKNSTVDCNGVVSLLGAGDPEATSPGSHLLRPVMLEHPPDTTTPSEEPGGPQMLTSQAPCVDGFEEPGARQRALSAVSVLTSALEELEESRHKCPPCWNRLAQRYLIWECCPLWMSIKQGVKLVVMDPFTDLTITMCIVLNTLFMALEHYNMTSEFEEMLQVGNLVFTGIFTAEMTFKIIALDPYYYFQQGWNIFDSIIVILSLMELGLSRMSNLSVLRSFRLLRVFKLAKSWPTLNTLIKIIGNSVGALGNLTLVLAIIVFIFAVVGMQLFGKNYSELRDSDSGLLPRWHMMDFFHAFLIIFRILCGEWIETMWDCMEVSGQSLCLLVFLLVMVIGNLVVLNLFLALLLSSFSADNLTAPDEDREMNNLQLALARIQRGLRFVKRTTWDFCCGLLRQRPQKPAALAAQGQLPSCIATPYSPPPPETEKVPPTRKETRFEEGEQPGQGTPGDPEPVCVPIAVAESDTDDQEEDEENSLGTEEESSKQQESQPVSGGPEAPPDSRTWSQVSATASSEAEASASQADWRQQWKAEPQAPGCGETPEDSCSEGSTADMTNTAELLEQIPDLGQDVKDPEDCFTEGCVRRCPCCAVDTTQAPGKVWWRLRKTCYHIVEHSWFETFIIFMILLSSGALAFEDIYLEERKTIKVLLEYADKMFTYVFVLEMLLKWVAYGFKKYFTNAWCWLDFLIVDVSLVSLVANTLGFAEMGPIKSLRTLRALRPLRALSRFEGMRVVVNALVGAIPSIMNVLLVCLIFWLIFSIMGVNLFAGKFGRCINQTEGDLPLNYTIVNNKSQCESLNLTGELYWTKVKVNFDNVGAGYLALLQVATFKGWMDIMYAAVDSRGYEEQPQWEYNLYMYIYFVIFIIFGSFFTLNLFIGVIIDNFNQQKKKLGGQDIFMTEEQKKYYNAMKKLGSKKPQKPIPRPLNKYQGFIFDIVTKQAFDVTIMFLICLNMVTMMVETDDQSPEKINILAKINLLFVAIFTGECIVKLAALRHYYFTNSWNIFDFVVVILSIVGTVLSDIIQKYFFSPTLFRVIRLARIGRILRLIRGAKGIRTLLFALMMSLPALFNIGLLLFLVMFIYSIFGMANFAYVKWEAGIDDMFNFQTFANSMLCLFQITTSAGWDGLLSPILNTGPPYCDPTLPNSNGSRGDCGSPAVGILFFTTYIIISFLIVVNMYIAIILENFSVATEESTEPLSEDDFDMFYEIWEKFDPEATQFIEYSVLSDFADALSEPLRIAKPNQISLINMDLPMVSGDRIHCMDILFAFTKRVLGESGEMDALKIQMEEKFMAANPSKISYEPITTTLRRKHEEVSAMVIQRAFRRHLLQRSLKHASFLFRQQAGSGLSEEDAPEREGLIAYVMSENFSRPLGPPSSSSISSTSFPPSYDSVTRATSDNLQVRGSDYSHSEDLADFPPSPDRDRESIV
# Chain of ACE (P22303 32-614, species assumed): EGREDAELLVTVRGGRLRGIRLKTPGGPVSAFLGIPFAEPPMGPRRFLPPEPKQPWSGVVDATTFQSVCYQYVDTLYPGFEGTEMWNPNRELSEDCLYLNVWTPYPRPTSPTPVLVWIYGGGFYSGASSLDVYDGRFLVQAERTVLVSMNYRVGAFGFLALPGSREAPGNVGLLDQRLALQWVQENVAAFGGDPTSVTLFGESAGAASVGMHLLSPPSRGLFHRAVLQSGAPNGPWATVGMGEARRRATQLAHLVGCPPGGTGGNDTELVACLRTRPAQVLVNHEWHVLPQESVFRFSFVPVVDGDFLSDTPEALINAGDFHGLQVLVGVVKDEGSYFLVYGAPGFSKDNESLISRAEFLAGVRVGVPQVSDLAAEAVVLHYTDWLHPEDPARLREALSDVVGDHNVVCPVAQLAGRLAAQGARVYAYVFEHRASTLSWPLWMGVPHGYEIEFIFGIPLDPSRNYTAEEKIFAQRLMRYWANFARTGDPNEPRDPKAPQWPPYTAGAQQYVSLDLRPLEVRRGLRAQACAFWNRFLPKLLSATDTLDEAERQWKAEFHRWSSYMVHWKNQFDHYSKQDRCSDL
# Chain of GABA-A α1B2γ2 (P14867 28-456): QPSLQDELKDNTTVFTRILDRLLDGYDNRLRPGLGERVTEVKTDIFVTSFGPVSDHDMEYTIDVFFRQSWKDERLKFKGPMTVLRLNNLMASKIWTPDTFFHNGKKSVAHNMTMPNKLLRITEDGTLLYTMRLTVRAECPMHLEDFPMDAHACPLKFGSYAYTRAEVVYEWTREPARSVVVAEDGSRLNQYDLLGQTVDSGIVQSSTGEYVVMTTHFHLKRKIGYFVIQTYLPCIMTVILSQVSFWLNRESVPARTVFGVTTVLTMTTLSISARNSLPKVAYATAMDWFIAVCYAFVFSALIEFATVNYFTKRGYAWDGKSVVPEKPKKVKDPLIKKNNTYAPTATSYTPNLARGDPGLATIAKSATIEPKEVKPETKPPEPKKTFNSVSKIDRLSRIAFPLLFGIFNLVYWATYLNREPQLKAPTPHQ
# Chain of GABA-A α1B2γ2 (P47870 25-512 limits assumed): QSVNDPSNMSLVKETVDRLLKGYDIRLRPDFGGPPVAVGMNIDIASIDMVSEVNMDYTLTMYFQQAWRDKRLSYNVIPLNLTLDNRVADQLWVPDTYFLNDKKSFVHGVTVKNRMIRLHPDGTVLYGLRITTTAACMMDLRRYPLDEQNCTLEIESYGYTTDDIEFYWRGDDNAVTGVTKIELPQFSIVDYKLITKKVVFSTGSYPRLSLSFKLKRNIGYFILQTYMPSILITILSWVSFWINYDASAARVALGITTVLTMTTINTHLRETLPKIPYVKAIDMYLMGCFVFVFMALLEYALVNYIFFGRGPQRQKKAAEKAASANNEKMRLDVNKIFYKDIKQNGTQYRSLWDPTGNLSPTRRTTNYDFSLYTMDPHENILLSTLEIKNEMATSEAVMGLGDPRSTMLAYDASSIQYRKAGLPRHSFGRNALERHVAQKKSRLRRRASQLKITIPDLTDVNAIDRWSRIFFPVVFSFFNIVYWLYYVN
# Chain of GABA-A α1B2γ2 (P18507 40-475): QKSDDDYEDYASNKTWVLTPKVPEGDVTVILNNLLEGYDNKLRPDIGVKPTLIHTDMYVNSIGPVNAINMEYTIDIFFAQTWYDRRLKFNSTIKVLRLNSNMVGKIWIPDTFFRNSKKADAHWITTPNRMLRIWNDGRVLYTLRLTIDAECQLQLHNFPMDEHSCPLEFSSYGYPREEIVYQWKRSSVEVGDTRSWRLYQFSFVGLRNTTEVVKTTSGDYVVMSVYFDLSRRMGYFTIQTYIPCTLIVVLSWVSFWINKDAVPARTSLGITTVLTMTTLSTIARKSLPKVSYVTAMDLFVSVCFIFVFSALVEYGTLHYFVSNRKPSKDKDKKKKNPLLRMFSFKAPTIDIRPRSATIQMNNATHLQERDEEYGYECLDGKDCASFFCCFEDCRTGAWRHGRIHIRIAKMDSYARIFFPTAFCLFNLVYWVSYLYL
compound,measurement,setting,value
5-hydroxy saxagliptin,maximum plasma concentration,[1],0.047 µg/mL
same,dose excreted (renal excretion),[2],~40%
same,mean renal clearance versus mean GFR,[2],did not exceed mean GFR
same,plasma exposures versus dose,[2],generally increased proportionally with dose
same,pharmacokinetics versus dose,[3],appeared linear with respect to dose
same,concentration-dependent effect on QTcP,[4],no concentration-dependent effect
COc1c(N2C[C@@H]3CCCN[C@@H]3C2)c(F)cc2c(=O)c(C(=O)O)cn(C3CC3)c12 [moxifloxacin],"maximum placebo-adjusted, time-matched change from baseline in QTcP","[4]; 400 mg, 4 h after dosing",12.52 ms
same,one-sided lower 95% confidence bound of QTcP change at time of maximum effect,"[4]; 400 mg, 4 h after dosing",7.83 ms
same,individuals with QTcP change from baseline >30 ms,[4]; after treatment with placebo and moxifloxacin,1
N#C[C@@H]1C[C@@H]2C[C@@H]2N1C(=O)[C@@H](N)C12CC3CC(CC(O)(C3)C1)C2 [saxagliptin],APD50,[5]; 3 μM,149 (24) ms
same,APD50 % Change,[5]; 3 μM,0 (0) %
same,APD90,[5]; 3 μM,235 (11) ms
same,APD90 % Change,[5]; 3 μM,2 (1) %
same,Maximum upstroke velocity (Vmax),[5]; 3 μM,446 (15) v/s
same,Maximum upstroke velocity (Vmax) % Change,[5]; 3 μM,−5 (3) %
same,Overshoot,[5]; 3 μM,29 (4) mV
same,Overshoot % Change,[5]; 3 μM,−7 (12) %
same,Resting Membrane Potential,[5]; 3 μM,−84 (1) mV
same,Resting Membrane Potential % Change,[5]; 3 μM,0 (1) %
same,APD50,[5]; 10 μM,153 (26) ms
same,APD50 % Change,[5]; 10 μM,2 (1) %
same,APD90,[5]; 10 μM,237 (14) ms
same,APD90 % Change,[5]; 10 μM,2 (1) %
same,Maximum upstroke velocity (Vmax),[5]; 10 μM,462 (21) v/s
same,Maximum upstroke velocity (Vmax) % Change,[5]; 10 μM,−2 (3) %
same,Overshoot,[5]; 10 μM,32 (4) mV
same,Overshoot % Change,[5]; 10 μM,1 (11) %
same,Resting Membrane Potential,[5]; 10 μM,−86 (1) mV
same,Resting Membrane Potential % Change,[5]; 10 μM,2 (2) %
same,APD50,[5]; 30 μM,152 (21) ms
same,APD50 % Change,[5]; 30 μM,3 (4) %
same,APD90,[5]; 30 μM,239 (11) ms
same,APD90 % Change,[5]; 30 μM,3 (2) %
same,Maximum upstroke velocity (Vmax),[5]; 30 μM,437 (13) v/s
same,Maximum upstroke velocity (Vmax) % Change,[5]; 30 μM,−7 (5) %
same,Overshoot,[5]; 30 μM,29 (5) mV
same,Overshoot % Change,[5]; 30 μM,−7 (14) %
same,Resting Membrane Potential,[5]; 30 μM,−85 (2) mV
same,Resting Membrane Potential % Change,[5]; 30 μM,1 (3) %
same,IC50,[6],> 25 µM
same,adverse effects,[7],no adverse effects
same,IC50,[8],> 30 µM
same,adverse effects,[9],no adverse effects
same,effect on vital sign measurements,[10],no effect
same,marked abnormalities in AST,[10],No marked abnormalities
same,dose excreted (renal excretion),[2]; human,approximately 20%
same,mean renal clearance versus mean GFR,[2],exceeded mean GFR
same,plasma exposures versus dose,[2],generally increased proportionally with dose
same,inhibition on any targets assessed,[11],< 25%
same,IC50,[12],> 60 µM
same,IC50,[13],> 30 µM
same,IC50,[14],> 30 µM
same,IC50,[15],> 30 µM
same,heart weight,[16],No increase
same,Cmax exposure multiple of the 5 mg clinical dose,[16]; po,≤ 750 times
same,multiples of human exposures based on AUC,[17],up to 2200 times
same,Cmax exposure multiple of Cmax at the 5 mg oral human dose,[18]; 3.4 mg/kg,280 times
same,adverse effects,"[18]; iv, 0.225 mg/kg",No adverse effects
same,decreased blood pressure (reductions),"[18]; iv, 3.4 mg/kg",< 40 mmHg
same,concentration-dependent effect on QTcP,[4],no concentration-dependent effect
same,IC50,[19],> 30 µM
